In paper doi:10.1101/2023.11.09.566481v1 (biorxiv, 2023):
Read-outs that look alike come from different tables or passages of the source.

Assays:
hSirt3^102-399 [1] = molecular target: T1, hSirt3^102-399 (Homo sapiens, UniProt Q9NTG7); assay: biochemical; conditions: read-out: % Control Steady-state
T1 sequence (Q9NTG7 102-399): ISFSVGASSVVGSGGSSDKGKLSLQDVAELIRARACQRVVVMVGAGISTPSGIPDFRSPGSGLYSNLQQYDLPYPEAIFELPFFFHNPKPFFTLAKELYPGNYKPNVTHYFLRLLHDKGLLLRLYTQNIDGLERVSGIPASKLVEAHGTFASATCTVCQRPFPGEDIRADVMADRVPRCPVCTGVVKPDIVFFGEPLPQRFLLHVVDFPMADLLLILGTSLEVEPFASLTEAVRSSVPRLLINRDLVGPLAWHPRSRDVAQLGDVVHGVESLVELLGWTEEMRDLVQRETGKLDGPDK

hSirt3^102-399 [2] = molecular target: T1, hSirt3^102-399; assay: biochemical; conditions: read-out: % Control Non-Steady state

remaining activity at 10 µM (hSirt3^102-399 [1]): 85.9%
remaining activity at 10 µM (hSirt3^102-399 [2]): 110%
SMILES: C=CCc1ccc(O)c(-c2ccc(O)c(CC=C)c2)c1 [Honokiol]
